For 30 molecules, TGI results are on record in PubChem BioAssay (NCI).

Holding throughout (test): NCI tumour cell line growth inhibition, 48 h
Test [1] concerns MDA-MB-231 breast.
In test [2] the test system is SK-OV-3 ovarian.
For test [3], the system named is MCF7 breast.
The subject of test [4] is NCI-H23 lung.
Test [5] concerns SK-MEL-2 melanoma.
For test [6], the system named is A549 NSCLC.
The test system of test [7] is DU-145 prostate.
For test [8], the system named is ACHN renal.
Test [9] concerns COLO 205 colon.
The subject of test [10] is MDA-N.
Test [11] relates to NCI/ADR-RES ovarian.
In test [12] the test system is T-47D breast.

Molecules are shown by their SMILES.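 Exposure lasted 48 hours, with cells grown in 96-well plates and compounds tested at five concentrations. TGI: concentration producing complete growth inhibition.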 A value given as a limit tells only on which side of the number the result lay.

Regarding `CSCCCNC(=O)c1csc(-c2csc(CCNC(=O)CNC(=O)CNC(=O)CNC(=O)OC(C)(C)C)n2)n1`, the TGI in test [1], in test [2], in [3], in test [4], in test [5] and in test [6] was greater than 100 µM throughout. The TGI in test [7], in test [8], in test [9], in [10] and in [11] was greater than 100 µM each time.
As for `COc1cc(OC)c2c(O)c(S(=O)(=O)c3ccc(C)cc3)c(=O)oc2c1`, the TGI in test [1], in test [2], in test [3], in test [4], in test [12] and in test [5] was greater than 100 µM in each case. Besides, the TGI in test [6], in test [7], in test [8], in [9] and in test [11] was greater than 100 µM in each case.
`CCCCc1c2c(nc3c1CCc1cc4cc5c(nc4nc1-3)-c1nc3c(c(CCCC)c1CC5)CCC/C3=C\c1ccccc1)/C(=C/c1ccccc1)CCC2`: the TGI in [2], in test [4], in test [6], in [8] and in [9] was greater than 100 µM throughout.
For the molecule `Cc1occ2c1C(=O)CC1C2[C@@H](O)CC2C(C)(C)CCC[C@]12C` (stereo not given in full), the TGI in [2], in [4], in [6], in test [8] and in test [9] was greater than 100 µM each time.
On to `CSc1ncc2c(n1)-c1ccccc1OC2NC(C)(C)C` (stereo not given), for which the TGI in test [1], in test [2], in test [3], in test [4], in test [12] and in test [6] was greater than 100 µM in each case. In addition, the TGI in test [7], in test [8] and in test [9] was greater than 100 µM throughout.
For `CC(=O)Nc1ccc(C(=O)N2N=C(C)/C(=C/c3cccc([N+](=O)[O-])c3)C2=O)cc1`, the TGI in test [4], in test [6], in test [8] and in test [9] was greater than 100 µM throughout.
For the molecule `O=C(COc1ccc(Cl)cc1)N1CCN(C(=O)COc2ccc(Cl)cc2)c2ccccc21`, the TGI in test [2], in test [4], in test [5], in test [6], in test [8] and in test [9] was greater than 100 µM in each case.
`O=S1(=O)C(c2ccccc2)=C(O)c2ccccc21`: the TGI in test [1], in [3], in [4], in test [12], in test [5] and in [6] was greater than 100 µM in each case. Also, the TGI in [7], in test [8], in test [9] and in test [11] was greater than 100 µM each time.
Turning to `Nc1ccc(C(=O)NN2C(=O)C(Cl)C2c2cccc(O)c2)cc1` (stereo not given), the TGI stood at 34.3 µM in test [2]; 33.2 µM in test [4]; 30.5 µM in test [5]; 39.3 µM in [6]; 37.9 µM in [8]; 34.6 µM in [9].
As to `C#CCSc1nc(N)c2ncn(C3OC(COP(=O)(O)O)C(O)C3O)c2n1` (stereo not given), the TGI in [2], in test [4], in test [5], in [6], in test [8] and in test [9] was greater than 239 µM in each case.
As for `CC(=O)C12C[C@](C#N)(N3CCCCCC3)C1C=Cc1ccccc12` (stereo not given in full), the TGI in [1], in test [2], in test [3], in [4], in test [12] and in test [6] was greater than 100 µM in each case. In addition, the TGI in test [7], in test [8], in test [9], in [10] and in [11] was greater than 100 µM in each case.
`CSc1nc(C#N)c(N)n1C`: the TGI in test [1], in test [2], in [4], in [12], in [5] and in [6] was greater than 100 µM throughout. Besides, the TGI in test [7], in test [8], in test [9], in test [10] and in [11] was greater than 100 µM each time.
In the case of `CCN1CCCC(Nc2cc(C)nc(/N=C(/N)Nc3ccc(Cl)c(Cl)c3)n2)C1` (stereo not given), the TGI turned out to be 3.84 µM in test [1]; 5.24 µM in test [2]; 3.59 µM in test [3]; 4.81 µM in [4]; 4.04 µM in [5]; 4.22 µM in test [6]. Moreover, the TGI turned out to be 15.3 µM in [7]; 5.56 µM in test [8]; 2.95 µM in test [9]; 3.16 µM in test [10]; 8.58 µM in test [11].
Consider `C=CCC1(CC)C(=O)NC(=O)NC1=O`, for which the TGI in test [2], in test [4], in test [6], in test [8] and in test [9] was greater than 100 µM throughout.
Regarding `CC1=NN(C(=O)c2ccc(Cl)cc2)C(=O)/C1=C/c1ccc(Cl)cc1`, the TGI in test [2], in [4], in test [5], in test [6], in [8] and in [9] was greater than 100 µM throughout.
In the case of `CCOC(=O)c1c(NCc2ccccc2)n(-c2ccccc2)c(=S)n(-c2ccccc2)c1=O`, the TGI in [1], in test [3], in test [4], in test [12], in test [5] and in test [6] was greater than 100 µM in each case. Besides, the TGI in test [7], in test [8], in [9] and in [10] was greater than 100 µM each time.
In the case of `O=c1[nH]cnc2sc(=S)c3c(c12)CCC3`, the TGI was greater than 100 µM in [1]; greater than 100 µM in test [2]; greater than 100 µM in [3]; 62.8 µM in [4]; greater than 100 µM in test [12]; greater than 100 µM in test [5]. Further, the TGI in test [6] is greater than 100 µM; in [7] it was greater than 100 µM; in test [8], 33.6 µM; in test [9], 62.7 µM; in test [11], greater than 100 µM.
On to `Oc1ccc(Cl)cc1C1=N/C(=N\C/N=C2\N=C(c3cc(Cl)ccc3O)CC(c3ccccc3)N2)NC(c2ccccc2)C1` (stereo not given), for which the TGI in [1], in test [2], in test [3], in test [4], in test [5] and in test [6] was greater than 100 µM each time. The TGI in test [7], in [8], in test [9], in test [10] and in test [11] was greater than 100 µM in each case.
Turning to `COc1nc(OC)nc(-c2cccc(F)c2)n1`, the TGI in [1] came out at 30 µM; in [2] it was 31.4 µM; in test [3], 45.1 µM; in [4], 29.7 µM; in test [12] it was 33.8 µM; in test [5], 38.6 µM. The TGI in [6] stood at 52.6 µM; in [7], 26.8 µM; in test [8], 30.7 µM; in test [9], 37.8 µM; in test [11], 31.7 µM.
In the case of `C/C(=C\Cc1cc(O)ccc1O)CCc1c(C)c(O)c(O)c(C=O)c1C`, the TGI in test [2] was found to be 95.7 µM; in [4], 44.7 µM; in test [5] it was 54.4 µM; in test [6], 92.8 µM; in test [8] it was 52.8 µM; in test [9], 34.4 µM.
As to `Nc1ccc(-c2nc3ccc(F)cc3s2)cc1`, the TGI in test [1] is 64 µM; in test [4] it was greater than 100 µM; in [5] it was 39.6 µM; in test [6], greater than 100 µM; in test [7], 98.6 µM; in test [8], 66.6 µM. Also, the TGI in test [9] is 33.2 µM; in [10] it was greater than 100 µM; in [11], greater than 100 µM.
With `CC(=O)c1ccc(N2CCN(C3=CC(=O)c4c(O)ccc(O)c4C3=O)CC2)cc1`, the TGI in test [1] is 94.8 µM; in test [3], greater than 100 µM; in test [4], greater than 100 µM; in test [12], greater than 100 µM; in test [6] it was greater than 100 µM; in test [7], greater than 100 µM. Besides, the TGI in test [9] and in [11] was greater than 100 µM in each case.
Turning to `COc1cc(OC)cc(-n2c(N)c(-c3nc4ccccc4n3C)c3ccc([N+](=O)[O-])cc3c2=O)c1`, the TGI in [1], in [4], in test [12], in [5], in test [6] and in test [7] was greater than 100 µM each time. The TGI in test [8], in test [9], in test [10] and in test [11] was greater than 100 µM throughout.
On to `Cc1ccnc(NC(=S)Nc2cccc(Cl)c2)c1`, for which the TGI in [2], in test [3], in test [12], in test [5], in test [6] and in test [7] was greater than 100 µM in each case. For the same molecule, the TGI in test [9] and in [11] was greater than 100 µM in each case.
On to `CN1Cc2c(nc(-c3ccc(Br)cc3)c[n+]2[O-])N(C)C1`, for which the TGI in [2], in test [4], in test [5], in [6], in test [8] and in [9] was greater than 100 µM throughout.
Regarding `COC1(C)C(=O)N2C1N(C(=O)OCc1ccccc1)CC2(C)C` (stereo not given), the TGI in [4], in test [5], in [6], in [8] and in test [9] was greater than 100 µM in each case.
Take `C[C@@H]1CC[C@@H](C)[C@](C)(CCc2ccoc2)C/C=C\C=C/1C(=O)O`: the TGI in test [1], in [2], in test [3], in test [4], in test [5] and in test [6] was greater than 50 µM each time. Also, the TGI in test [8], in test [9], in [10] and in [11] was greater than 50 µM each time.
With `CC(=O)CC(C)(C)NC(=O)[C@@]1(O)CC[C@H]2[C@@H]3CCC4=CC(=O)CC[C@@H]4[C@H]3CC[C@@]21C`, the TGI in [1], in test [2], in test [4], in test [12], in test [5] and in test [6] was greater than 100 µM each time. In addition, the TGI in test [7], in [8], in [9], in test [10] and in [11] was greater than 100 µM in each case.
On to `CN(C)C(=O)C(F)(F)C(c1ccc(Br)cc1)C1C(=O)N(C)C(=O)N(C)C1=O` (stereo not given), for which the TGI in test [1], in [2], in test [3], in test [4], in test [12] and in test [5] was greater than 100 µM in each case. Also, the TGI in test [6], in test [7], in test [8], in test [9] and in test [11] was greater than 100 µM each time.
As to `O/N=C1/C2CC3CC1(c1ccccc1)CC(/C3=N/O)/C2=N\O` (stereo not given), the TGI in test [1], in test [2], in test [3], in [4], in test [12] and in test [5] was greater than 100 µM in each case. In addition, the TGI in test [6], in test [7], in [8], in test [9] and in test [10] was greater than 100 µM throughout.
